Measurements published in patent US5635502A, “Mercaptoacetylamide bicyclic lactam derivatives useful as inhibitors of enkephalinase and ACE” (Merrell Pharmaceuticals Inc., priority 1995, dated 1997).
Where a SMILES comes first, the peptide text is derived from it. [ ]: non-standard residue; d: D form. The star is where a group is joined. Phe(4-NO2) = N[C@@H](Cc1ccc([N+](=O)[O-])cc1)C(=O)O; Dansyl = CN(C)c1cccc2c(S(=O)(=O)*)cccc12

Molecular target: T1, Enkephalinase (endopeptidase-24.11) partially purified from rat kidney (Rattus norvegicus, UniProt P07861)
T1 construct: Enkephalinase is partially purified from rat kidney; from tissue; host or cells: rat kidney, microvilli fraction
T1 sequence (P07861 1-750): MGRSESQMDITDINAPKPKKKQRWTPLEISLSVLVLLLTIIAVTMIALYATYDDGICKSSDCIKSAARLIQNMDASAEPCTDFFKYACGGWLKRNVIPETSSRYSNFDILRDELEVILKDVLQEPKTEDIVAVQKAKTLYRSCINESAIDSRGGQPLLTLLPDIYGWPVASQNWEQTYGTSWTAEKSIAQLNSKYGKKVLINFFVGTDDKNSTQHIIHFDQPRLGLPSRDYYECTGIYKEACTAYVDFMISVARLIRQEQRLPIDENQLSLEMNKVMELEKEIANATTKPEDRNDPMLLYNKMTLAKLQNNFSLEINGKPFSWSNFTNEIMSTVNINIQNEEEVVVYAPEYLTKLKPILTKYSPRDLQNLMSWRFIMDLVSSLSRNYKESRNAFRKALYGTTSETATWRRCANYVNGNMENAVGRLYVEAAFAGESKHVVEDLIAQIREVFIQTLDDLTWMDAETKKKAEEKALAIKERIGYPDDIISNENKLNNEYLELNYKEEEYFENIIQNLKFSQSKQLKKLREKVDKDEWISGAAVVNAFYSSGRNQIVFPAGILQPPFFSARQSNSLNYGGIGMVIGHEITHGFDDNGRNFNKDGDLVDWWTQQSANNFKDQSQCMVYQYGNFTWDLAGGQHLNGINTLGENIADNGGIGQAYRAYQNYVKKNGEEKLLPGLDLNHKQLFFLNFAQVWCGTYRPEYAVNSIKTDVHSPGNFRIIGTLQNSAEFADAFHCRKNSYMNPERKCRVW
Test: Enkephalinase fluorometric assay with substrate dansyl-D-AlaGly(p-nitro)PheGly
Type: biochemical
Details: substrate of enkephalinase; 50 mM HEPES buffer pH 7.4, 25° C.
Source text: Enkephalinase is partially purified from rat kidney. The enzyme is extracted from the microvilli fraction by using Triton X-100 according to the method of Malfroy and Schwartz [J. Biol. Chem. 259, 14365-14370 (1984)] or by using a proteolytic treatment according to the method of Almenoff and Orlowski [Biochem. 22, 590-599 (1983)]. The enzyme is further purified by anion exchange chromatography (Mono Q™ column, Pharmacia) using a Pharmacia FPLC system. The enzyme activity may be measured by the fluorometric methods of Florentin et al. [Anal. Biochem. 141, 62-69 (1984)] or of Almenoff and Orlowski [J. Neurochemistry 42, 151-157 (1984)]. The enzyme is assayed in 50 mM HEPES buffer (pH 7.4) in a 3.0 mL reaction volume containing 12 μM of the substrate dansyl-D-AlaGly(p-nitro)PheGly (Km =40 μM) at 25° C. The substrate (and inhibitor) is added from a concentrated stock solution in DMSO (up to 0.1 mL DMSO final volume). The enzyme in a small volume (approximately 0.1 μg of FPLC purified protein) is added to initiate the reaction and the rate of fluorescence increase is recorded continuously using a fluorometer (excitation at 339 nm, emission at 562 nm).

Km: 40 µM
Structure (SMILES): C[C@@H](NS(=O)(=O)c1cccc2c(N(C)C)cccc12)C(=O)NCC(=O)N[C@@H](Cc1ccc([N+](=O)[O-])cc1)C(=O)NCC(=O)O [dansyl-D-AlaGly(p-nitro)PheGly] (Dansyl-[dA]G[Phe(4-NO2)]G-OH)
